Experimental data as given in patent US6140333A, “N-acyl cyclic amine derivatives” (priority 1998, dated 2000).

Legend:
[1] = target: T1, m2 muscarinic acetylcholine receptor (Homo sapiens, UniProt P08172); assay: biochemical; type: binding; conditions: CHO cells expressing m2; 0.2 nM [3H]-N-methylscopolamine, pH 7.4, 120 min, room temperature
T1 construct: purchased Receptor Biology Inc; host or cells: CHO cells
T1 sequence (P08172 1-466): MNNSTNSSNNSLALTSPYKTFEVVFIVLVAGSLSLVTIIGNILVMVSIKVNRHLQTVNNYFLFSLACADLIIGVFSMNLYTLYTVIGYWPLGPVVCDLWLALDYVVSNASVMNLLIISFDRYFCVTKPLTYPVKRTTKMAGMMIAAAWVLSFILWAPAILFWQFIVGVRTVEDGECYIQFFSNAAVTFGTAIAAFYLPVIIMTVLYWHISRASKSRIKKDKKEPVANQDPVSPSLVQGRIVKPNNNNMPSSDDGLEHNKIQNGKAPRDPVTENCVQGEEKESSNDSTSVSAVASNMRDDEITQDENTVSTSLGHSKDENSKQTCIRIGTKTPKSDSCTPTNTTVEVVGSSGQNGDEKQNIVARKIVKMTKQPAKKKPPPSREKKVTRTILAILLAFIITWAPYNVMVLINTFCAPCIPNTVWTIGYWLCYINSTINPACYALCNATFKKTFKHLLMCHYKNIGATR
Experimental: (§1) These tests were performed according to a modification of the method of Hargreaves et al. (Br. J. Pharmacol. 107: pp. 494-501, 1992). Thus, CHO cells expressing m2 and m3 muscarinic acetylcholine receptors (Receptor Biology Inc.) were incubated with 0.2 nM [^3 H]-N-methylscopolamine (84Ci/mmol, New England Nuclear, Inc.) and each compound of the present invention to be tested in 0.5 ml of 50 mM tris-HCl--10 mM MgCl2 --1 mM EDTA (pH 7.4) for 120 minutes at room temperature (about 20 to 25° C.), followed by suction filtration with a glass filter (Uni-Filter plate GF/C; Packard Instruments Co., Ind.) and washing four times with 1 ml of ice-cold Tris-HCl buffer. After the filter was dried for 1 hour at 50° C., a scintillator (Miroscinti 0; Packard Instruments Co., Inc.) was added, and the radioactivity of [^3 H]-N-methylscopolamine adsorbed by the filter was counted by a liquid scintillation counter (TopCount™; Packard Instruments Co., Inc.). Non-specific binding of [^3 H]-N-methylscopolamine was measured in the presence of 1 μM N-methylscopolamine, which was added. According to the method of Cheng and Prusoff (Biochem. Pharmacol. 22: pp. 3099-3108, 1973), the binding affinity (Ki value) of the compound of the present invention for muscarinic receptors was calculated from the concentration (IC50) of the test compound which achieved 50% inhibition of the binding of [^3 H]-N-methylscopolamine, labeled ligand.

[2] = target: T2, m3 muscarinic acetylcholine receptor (Homo sapiens, UniProt P20309); assay: biochemical; type: binding; conditions: for Ki: CHO cells expressing m3, 0.2 nM [3H]-N-methylscopolamine, pH 7.4, 120 min, room temperature; for m2/m3 (ratio of Ki): selectivity m2 over m3, binding
T2 construct: purchased Receptor Biology Inc; host or cells: CHO cells
T2 sequence (P20309 whole entry): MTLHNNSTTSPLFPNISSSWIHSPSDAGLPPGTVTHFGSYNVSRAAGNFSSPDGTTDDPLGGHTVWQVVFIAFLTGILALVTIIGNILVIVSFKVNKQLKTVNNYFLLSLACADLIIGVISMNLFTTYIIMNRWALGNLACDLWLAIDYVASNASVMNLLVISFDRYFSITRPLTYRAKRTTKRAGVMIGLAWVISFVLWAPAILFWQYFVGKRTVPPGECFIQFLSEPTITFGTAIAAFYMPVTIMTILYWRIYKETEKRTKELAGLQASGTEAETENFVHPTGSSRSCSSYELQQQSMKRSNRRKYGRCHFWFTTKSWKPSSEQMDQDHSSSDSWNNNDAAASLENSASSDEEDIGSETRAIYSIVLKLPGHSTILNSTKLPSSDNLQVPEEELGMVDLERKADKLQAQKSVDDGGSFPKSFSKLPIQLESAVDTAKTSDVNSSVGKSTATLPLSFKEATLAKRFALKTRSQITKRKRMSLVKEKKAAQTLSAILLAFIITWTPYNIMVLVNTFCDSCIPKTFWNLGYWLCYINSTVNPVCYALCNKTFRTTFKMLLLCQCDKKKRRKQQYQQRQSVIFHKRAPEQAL
Experimental: as §1

[3] = target: T3, M2 receptor (right atrium) (Rattus norvegicus, UniProt P10980); assay: Antagonism to M2 receptor in isolated rat right atrium (carbachol dose-response); conditions: 32° C.
T3 construct: the right atrium was isolated; from tissue; host or cells: isolated right atrium of male SD rat
T3 sequence (P10980 1-466): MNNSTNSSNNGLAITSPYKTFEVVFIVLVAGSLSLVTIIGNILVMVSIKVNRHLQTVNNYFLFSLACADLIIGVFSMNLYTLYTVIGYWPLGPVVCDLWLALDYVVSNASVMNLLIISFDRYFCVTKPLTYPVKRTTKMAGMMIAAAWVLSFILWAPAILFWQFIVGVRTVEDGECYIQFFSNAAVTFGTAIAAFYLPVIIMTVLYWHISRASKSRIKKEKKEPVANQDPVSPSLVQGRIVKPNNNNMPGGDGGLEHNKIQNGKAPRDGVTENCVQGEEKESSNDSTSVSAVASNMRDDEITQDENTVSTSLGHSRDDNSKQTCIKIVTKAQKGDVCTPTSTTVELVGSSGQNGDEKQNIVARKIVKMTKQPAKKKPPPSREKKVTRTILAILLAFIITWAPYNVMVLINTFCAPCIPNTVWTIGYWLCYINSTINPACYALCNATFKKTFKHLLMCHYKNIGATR
Experimental: 1) Tests for Antagonism to M2 Receptor in an Isolated Rat Right Atrium
These tests were performed according to a conventional method. A male SD strain rat (weighing 300-500 g) was killed by exsanguination, and the right atrium was isolated. This preparation was isometrically suspended in organ bath filled with 20 ml of Krebs-Hanseleit solution (gassed with 95% O2 -5% CO2 and kept at 32° C.) with an initial tension of 0.5 g. The heart rate was recorded with a heart rate counter. After the preparation was equilibrated for 30 minutes, carbachol (10^-9 to 10^-6 M) was cumulatively administered in three-fold increasing doses. Thus, a decrease in heart rate was measured to obtain a dose-response curve for the control experiment. After the preparation was washed with fresh solution to restore the heart rate, a test compound was administered thereto. Ten minutes later, carbachol was cumulatively administered again. Responses to carbachol were expressed as percentages based on the heart rate before the administration of carbachol as 100%. The antagonistic potency (KB value) of the test compound was determined from the degree of shift of the dose-response curve obtained by treatment with individual test compound of the present invention.

M3 receptor (trachea) = target: T4, M3 receptor (trachea) (Rattus norvegicus, UniProt P08483); assay: Antagonism to airway M3 receptor in isolated rat trachea (carbachol dose-response); conditions: for Kb: isolated rat trachea, carbachol, 32° C.; for M2/M3 (ratio of KB): selectivity right atrium M2 over trachea M3, in vitro
T4 construct: the trachea was isolated; from tissue; host or cells: isolated trachea of male SD rat
T4 sequence (P08483 whole entry): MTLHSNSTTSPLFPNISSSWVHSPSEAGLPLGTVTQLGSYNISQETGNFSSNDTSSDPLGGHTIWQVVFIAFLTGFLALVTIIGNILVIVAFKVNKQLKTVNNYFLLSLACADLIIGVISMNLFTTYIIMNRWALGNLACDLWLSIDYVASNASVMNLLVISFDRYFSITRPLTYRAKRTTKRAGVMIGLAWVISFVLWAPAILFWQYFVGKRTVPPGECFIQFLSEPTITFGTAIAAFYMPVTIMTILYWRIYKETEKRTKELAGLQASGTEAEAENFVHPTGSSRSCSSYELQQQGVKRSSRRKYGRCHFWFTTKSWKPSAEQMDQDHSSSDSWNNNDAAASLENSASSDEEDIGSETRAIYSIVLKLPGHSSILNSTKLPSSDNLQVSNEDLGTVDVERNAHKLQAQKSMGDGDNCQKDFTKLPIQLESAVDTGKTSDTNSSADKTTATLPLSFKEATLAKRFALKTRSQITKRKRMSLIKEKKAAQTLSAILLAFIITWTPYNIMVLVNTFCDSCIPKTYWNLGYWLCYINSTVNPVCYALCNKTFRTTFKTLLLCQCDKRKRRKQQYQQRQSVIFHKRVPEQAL
Experimental: 2) Tests for Antagonism to the Airway M3 Receptor in an Isolated Rat Right Trachea
These tests were performed according to a conventional method. A male SD strain rat (weighing 300-500 g) was killed by exsanguination, and the trachea was isolated. Annular segments (2 mm wide) were cut out from the trachea and cut transversely at the anterior cartilage part to make an open ring preparation. The preparation was suspended in a Magnus tube filled with 5 ml of Krebs-Hanseleit solution (gassed with 95% O2 -5% CO2 and kept at 32° C.) with an initial tension of 1.0 g and a resting tension of 0.6 g. The tension of the preparation was recorded isometrically. After the preparation was equilibrated for an hour, the preparation was caused to contract twice with 10^-4 M carbachol, and the second contraction induced by carbachol was used as the reference contraction. After the preparation was washed with fresh solution to be restored to the base line, a test compound was administered thereto (or no treatment was given). Ten minutes later, carbachol (10^-8 to 10^-3 M) was cumulatively administered in three-fold increasing doses to obtain a dose-response curve. The dose-response curve was plotted by expressing responses as percentages based on the reference contraction of the preparation as 100%. The antagonistic potency (KB value) of the test compound was determined from the degree of shift of the dose-response curve obtained by treatment with the test compound.

muscarinic M3 receptor = assay: Bronchodilation in dogs (oral administration), methacholine provocation test; type: in vivo, dog (beagle); conditions: 0.1 mg/kg, P.O., 4 hrs later
Experimental: Tests for Antagonism Against Muscarinic M3 Receptor (in vivo)
Tests for Bronchodilation in Dogs (oral administration)
Male beagles of 12 to 24 months of age, weight 10 to 15 kg, were anesthetized with pentobarbital (30 mg/kg, iv.), and the trachea of each dog was intubated. The sensitivity of the airway (methacoline reaction threshold value) was measured at least twice at two weeks' intervals by a methacoline provocation test, and dogs manifesting a reproducible methacoline reaction threshold value^1) were selected. To those dogs whose methacholine reaction threshold value was established, the test compound was orally administered (0.1 mg/kg). Four hours after the administration, a methacoline provocation test was again conducted, and the methacholine reaction threshold value^2) after the administration of the test compound was measured. The brochodilator activity of the test compound was determined by the following equation: [formula]
The methacholine provocation test was conducted using an Astograph TCK-6100H model (Chest). Methacholine chloride was used as brochoconstritor, which was diluted with isotonic sodium chloride solution in 10 grade concentration levels from 40,000 μg/ml to 20,000, 10,000, 5,000, 2,500, 1,250, 625, 312.5, 156 and 78 μg/ml. The test animals were caused to inhale these methacoline aerosols for 1 min. at a time, starting with the lowest concentration upward, and the respiratory resistance was continuously recorded. The concentration of methacoline at which the respiratory resistance reached a value twice its initial level was deemed to be the methacholine threshold value.

Row | SMILES | Ki [1] [nM] | Ki [2] [nM] | m2/m3 (ratio of Ki) [2] | Kb [3] [nM] | Kb (M3 receptor (trachea)) [nM] | M2/M3 (ratio of KB) (M3 receptor (trachea)) | Methacoline Provocation Test Shift value (muscarinic M3 receptor)
1 | O=C(N1CCC2(CCNC2)CC1)[C@](O)(c1ccccc1)[C@@H]1CCC(F)(F)C1 [Example 26, 8-{(2R)-2-((1R)-3,3-difluorocyclopentyl)-2-hydroxy-2-phenylacetyl}-2,8-diazaspiro[4.5]decane] | 27 | 0.44 | 60 | 75 | 0.83 | 75 | 7.1
2 | O=C(N1CC2=C(CNC2)C1)[C@](O)(c1ccccc1)[C@@H]1CCC(F)(F)C1 [Example 35, 3-{(2R)-2-((1R)-3,3-difluorocyclopentyl)-2-hydroxy-2-phenylacetyl}-3,7-diazabicyclo[3.3.0]oct-1(5)-ene] | 670 | 4.2 | 160 | 2400 | 8 | 300 | 5.8
3 | Cl.NC1CCN(C(=O)[C@](O)(c2ccccc2)[C@@H]2CCC(F)(F)C2)CC1 [Example 1, 4-Amino-1-{(2R)-2-((1R)-3,3-difluorocyclopentyl)-2-hydroxy-2-Phenylacetyl}piperidine monohydrochloride] | – | – | – | 730 | 20 | 37 | –
4 | O=C(N1C[C@H]2CCNCC[C@H]2C1)[C@](O)(c1ccccc1)[C@@H]1CCC(F)(F)C1 [Example 29, 9-{(2R)-2-((1R)-3,3-difluorocyclopentyl)-2-hydroxy-2-phenylacetyl}-cis-4,9-diazabicyclo[5.3.0]decane] | 230 | 1.2 | 190 | 230 | 1.6 | 140 | 22
5 | CC1NCCC12CCN(C(=O)[C@](O)(c1ccccc1)[C@@H]1CCC(F)(F)C1)CC2 (single isomer, unassigned) [Example 43 ((IS*)-substance), (1R*)- and (1S*)-8-{(2R)-2-((1R)-3,3-difluorocyclopentyl)-2-hydroxy-2-phenylacetyl}-1-methyl-2,8-diazaspiro[4.5]decane] | 21 | 0.26 | 80 | – | – | – | 22
